In US12559496B2, “Imidazopyrimidines as modulators of IL-17” (Janssen Pharmaceutica NV, priority 2020, dated 2026):

Assays:
[1] = target: IL-17A(FLAG-Tagged): IL-17RA(His-Tagged) (Homo sapiens, UniProt Q16552, K93Q); experiment: IL-17A(FLAG-Tagged): IL-17RA(His-Tagged) Binding Disruption Eu-HTRF Assay; details: disruption of IL-17A/IL-17RA binding; simple average if tested more than once
In short: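 Compound (22-point 2-fold series) was preincubated 1 h at rt with FLAG-IL-17A, then His-IL-17RA, Eu-anti-FLAG and D2-anti-His were added in PBS/0.01% Triton X-100 with 200 mM KF for 2 h at rt. The ratio of 665 and 620 nm intensities versus concentration was fitted to one-site competition for IC50.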

[2] = system: IL-17A-induced G-CSF production in human normal keratinocytes (NHK); experiment: NHK Assay: IL-17A-induced G-CSF production in human normal keratinocytes; type: cell-based; details: Homo sapiens, Keratinocyte, 24 h, IL-17A 5 ng/mL, 5% FBS, simple average if tested more than once
In short: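 Adult normal human keratinocytes treated 24 h at 37 °C with IL-17A (5 ng/mL final) pre-incubated 1 h at rt with titrated compound; 0.2% DMSO, 5% FBS. G-CSF in supernatant measured by HTRF against a standard curve to give IC50; viability checked by CellTiter-Glo.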

[3] = seven of nine patients with moderate-to-severe HS, open-label pilot-trial (Prussick et al. 2019); cited from earlier work

UniProt Q16552, sequence (Q16552 with tags, fused parts or gaps K93Q): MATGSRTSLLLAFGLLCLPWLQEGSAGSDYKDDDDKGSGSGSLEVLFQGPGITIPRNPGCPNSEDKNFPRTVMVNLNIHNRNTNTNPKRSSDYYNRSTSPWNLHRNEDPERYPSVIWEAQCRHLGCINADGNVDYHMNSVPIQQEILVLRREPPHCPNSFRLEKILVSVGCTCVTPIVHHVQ

IC50 [1] [nM]	Molecule	IC50 [2] [nM]	patients achieving HiSCR [3] [%]
91	O=C(CC1CC(F)(F)C1)N[C@@H](c1ccn2cc([C@@H](NC(=O)c3nonc3C3CC3)C3CCC(F)(F)CC3)nc2n1)C1CC1 [Example 62, 4-Cyclopropyl-N—((S)-(7-((R)-cyclopropyl(2-(3,3-difluorocyclobutyl)acetamido)methyl)imidazo[1,2-a]pyrimidin-2-yl)(4,4-difluorocyclohexyl)methyl)-1,2,5-oxadiazole-3-carboxamide]	120	
220	O=C(CC1CC(F)(F)C1)N[C@@H](c1ccn2cc([C@@H](NC(=O)c3nocc3CC(F)(F)F)C3CCC(F)(F)CC3)nc2n1)C1CC1 [Example 63, N—((S)-(7-((R)-Cyclopropyl(2-(3,3-difluorocyclobutyl)acetamido)methyl)imidazo[1,2-a]pyrimidin-2-yl)(4,4-difluorocyclohexyl)methyl)-4-(2,2,2-trifluoroethyl)isoxazole-3-carboxamide]	640	
	secukinumab		78
